Laboratory results reported in ChEMBL document CHEMBL5442219.

What was measured:
Conditions in all cases: Compound concentration 10 µM
[1] = molecular target: T1, Alpha-1A adrenergic receptor (Homo sapiens) (UniProt P35348)
T1 sequence (whole entry): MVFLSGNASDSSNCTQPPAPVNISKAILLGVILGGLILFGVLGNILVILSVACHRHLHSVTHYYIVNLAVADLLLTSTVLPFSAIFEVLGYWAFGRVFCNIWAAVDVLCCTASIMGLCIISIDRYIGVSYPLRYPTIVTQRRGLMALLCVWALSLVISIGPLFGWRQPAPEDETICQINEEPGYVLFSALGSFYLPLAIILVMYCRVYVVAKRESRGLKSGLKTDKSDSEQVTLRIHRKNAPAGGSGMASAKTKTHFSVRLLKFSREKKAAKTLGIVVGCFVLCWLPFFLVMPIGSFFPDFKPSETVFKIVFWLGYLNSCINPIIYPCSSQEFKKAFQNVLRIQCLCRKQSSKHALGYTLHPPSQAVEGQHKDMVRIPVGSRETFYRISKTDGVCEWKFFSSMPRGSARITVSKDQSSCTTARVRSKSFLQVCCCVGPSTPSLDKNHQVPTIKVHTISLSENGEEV
Description: PDSP Primary Binding target: ADRA1A - Compounds are tested at 10 uM concentration, plate are incubated at room temperature in the dark for 90 minutes. Reaction are stopped by vacuum filtration onto 0.3% polyethyleneimine soaked filter mats using Filtermate harvester. Scintilation cocktail is then melted onto microwave-dried filters on a hot plate and the radio activity is counted in Microbia counter.

[2] = molecular target: T2, Alpha-1D adrenergic receptor (Homo sapiens) (UniProt P25100)
T2 sequence (whole entry): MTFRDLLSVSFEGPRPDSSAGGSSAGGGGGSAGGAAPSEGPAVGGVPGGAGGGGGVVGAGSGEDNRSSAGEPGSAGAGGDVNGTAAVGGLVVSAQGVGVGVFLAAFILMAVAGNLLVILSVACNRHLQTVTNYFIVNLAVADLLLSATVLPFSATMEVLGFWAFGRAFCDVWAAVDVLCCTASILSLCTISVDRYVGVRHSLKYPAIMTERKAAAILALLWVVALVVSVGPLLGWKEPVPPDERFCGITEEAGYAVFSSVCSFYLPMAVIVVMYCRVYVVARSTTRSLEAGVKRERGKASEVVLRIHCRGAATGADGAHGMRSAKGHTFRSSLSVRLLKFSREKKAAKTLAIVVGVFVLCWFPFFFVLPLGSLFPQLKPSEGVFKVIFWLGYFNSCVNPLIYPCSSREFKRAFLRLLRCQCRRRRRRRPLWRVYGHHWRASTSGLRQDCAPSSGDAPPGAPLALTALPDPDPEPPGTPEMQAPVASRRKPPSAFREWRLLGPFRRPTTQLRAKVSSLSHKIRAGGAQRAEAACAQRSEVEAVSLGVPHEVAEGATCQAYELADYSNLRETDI
Description: PDSP Primary Binding target: ADRA1D - Compounds are tested at 10 uM concentration, plate are incubated at room temperature in the dark for 90 minutes. Reaction are stopped by vacuum filtration onto 0.3% polyethyleneimine soaked filter mats using Filtermate harvester. Scintilation cocktail is then melted onto microwave-dried filters on a hot plate and the radio activity is counted in Microbia counter.

[3] = molecular target: T3, Muscarinic acetylcholine receptor M1 (Homo sapiens) (UniProt P11229)
T3 sequence (whole entry): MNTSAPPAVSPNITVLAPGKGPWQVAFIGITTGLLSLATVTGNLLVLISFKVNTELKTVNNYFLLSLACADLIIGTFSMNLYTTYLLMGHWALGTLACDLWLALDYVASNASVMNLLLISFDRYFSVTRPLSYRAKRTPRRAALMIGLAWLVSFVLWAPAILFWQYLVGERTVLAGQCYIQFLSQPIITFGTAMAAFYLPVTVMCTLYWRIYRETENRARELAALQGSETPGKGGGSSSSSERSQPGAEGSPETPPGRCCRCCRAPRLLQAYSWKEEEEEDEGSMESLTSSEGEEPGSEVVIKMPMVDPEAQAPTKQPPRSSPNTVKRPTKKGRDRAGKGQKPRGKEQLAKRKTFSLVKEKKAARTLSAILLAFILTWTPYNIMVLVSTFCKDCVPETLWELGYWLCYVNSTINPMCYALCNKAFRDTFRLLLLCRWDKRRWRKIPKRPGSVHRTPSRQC
Description: PDSP Primary Binding target: CHRM1 - Compounds are tested at 10 uM concentration, plate are incubated at room temperature in the dark for 90 minutes. Reaction are stopped by vacuum filtration onto 0.3% polyethyleneimine soaked filter mats using Filtermate harvester. Scintilation cocktail is then melted onto microwave-dried filters on a hot plate and the radio activity is counted in Microbia counter.

[4] = molecular target: Muscarinic acetylcholine receptor M3 (Homo sapiens) (UniProt P20309)
Description: PDSP Primary Binding target: CHRM3 - Compounds are tested at 10 uM concentration, plate are incubated at room temperature in the dark for 90 minutes. Reaction are stopped by vacuum filtration onto 0.3% polyethyleneimine soaked filter mats using Filtermate harvester. Scintilation cocktail is then melted onto microwave-dried filters on a hot plate and the radio activity is counted in Microbia counter.

[5] = molecular target: D(3) dopamine receptor (Homo sapiens) (UniProt P35462)
Description: PDSP Primary Binding target: DRD3 - Compounds are tested at 10 uM concentration, plate are incubated at room temperature in the dark for 90 minutes. Reaction are stopped by vacuum filtration onto 0.3% polyethyleneimine soaked filter mats using Filtermate harvester. Scintilation cocktail is then melted onto microwave-dried filters on a hot plate and the radio activity is counted in Microbia counter.

[6] = molecular target: Histamine H2 receptor (Homo sapiens) (UniProt P25021)
Description: PDSP Primary Binding target: HRH2 - Compounds are tested at 10 uM concentration, plate are incubated at room temperature in the dark for 90 minutes. Reaction are stopped by vacuum filtration onto 0.3% polyethyleneimine soaked filter mats using Filtermate harvester. Scintilation cocktail is then melted onto microwave-dried filters on a hot plate and the radio activity is counted in Microbia counter.

[7] = molecular target: D(2) dopamine receptor (Homo sapiens) (UniProt P14416)
Description: PDSP Primary Binding target: DRD2 - Compounds are tested at 10 uM concentration, plate are incubated at room temperature in the dark for 90 minutes. Reaction are stopped by vacuum filtration onto 0.3% polyethyleneimine soaked filter mats using Filtermate harvester. Scintilation cocktail is then melted onto microwave-dried filters on a hot plate and the radio activity is counted in Microbia counter.

[8] = molecular target: Histamine H3 receptor (Homo sapiens) (UniProt Q9Y5N1)
Description: PDSP Primary Binding target: HRH3 - Compounds are tested at 10 uM concentration, plate are incubated at room temperature in the dark for 90 minutes. Reaction are stopped by vacuum filtration onto 0.3% polyethyleneimine soaked filter mats using Filtermate harvester. Scintilation cocktail is then melted onto microwave-dried filters on a hot plate and the radio activity is counted in Microbia counter.

[9] = molecular target: 5-hydroxytryptamine receptor 1E (Homo sapiens) (UniProt P28566)
Description: PDSP Primary Binding target: HTR1E - Compounds are tested at 10 uM concentration, plate are incubated at room temperature in the dark for 90 minutes. Reaction are stopped by vacuum filtration onto 0.3% polyethyleneimine soaked filter mats using Filtermate harvester. Scintilation cocktail is then melted onto microwave-dried filters on a hot plate and the radio activity is counted in Microbia counter.

[10] = molecular target: Sigma intracellular receptor 2 (Homo sapiens) (UniProt Q5BJF2)
Description: PDSP Primary Binding target: TMEM97 - Compounds are tested at 10 uM concentration, plate are incubated at room temperature in the dark for 90 minutes. Reaction are stopped by vacuum filtration onto 0.3% polyethyleneimine soaked filter mats using Filtermate harvester. Scintilation cocktail is then melted onto microwave-dried filters on a hot plate and the radio activity is counted in Microbia counter.

[11] = molecular target: D(1A) dopamine receptor (Homo sapiens) (UniProt P21728)
Description: PDSP Primary Binding target: DRD1 - Compounds are tested at 10 uM concentration, plate are incubated at room temperature in the dark for 90 minutes. Reaction are stopped by vacuum filtration onto 0.3% polyethyleneimine soaked filter mats using Filtermate harvester. Scintilation cocktail is then melted onto microwave-dried filters on a hot plate and the radio activity is counted in Microbia counter.

[12] = molecular target: T4, 5-hydroxytryptamine receptor 2C (Homo sapiens) (UniProt P28335)
T4 sequence (whole entry): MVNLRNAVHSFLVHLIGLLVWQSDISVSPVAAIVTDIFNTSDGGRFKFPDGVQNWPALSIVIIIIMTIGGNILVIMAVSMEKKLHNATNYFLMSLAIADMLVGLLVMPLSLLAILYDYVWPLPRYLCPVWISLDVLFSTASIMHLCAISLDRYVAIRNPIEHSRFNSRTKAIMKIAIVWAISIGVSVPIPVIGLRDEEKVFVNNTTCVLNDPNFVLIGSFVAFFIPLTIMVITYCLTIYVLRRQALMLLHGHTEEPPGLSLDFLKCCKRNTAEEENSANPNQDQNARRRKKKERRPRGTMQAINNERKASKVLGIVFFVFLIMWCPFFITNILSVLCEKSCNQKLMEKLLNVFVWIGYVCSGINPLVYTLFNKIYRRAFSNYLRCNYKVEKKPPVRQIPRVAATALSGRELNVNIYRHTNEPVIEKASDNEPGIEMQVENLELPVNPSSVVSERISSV
Description: PDSP Primary Binding target: HTR2C - Compounds are tested at 10 uM concentration, plate are incubated at room temperature in the dark for 90 minutes. Reaction are stopped by vacuum filtration onto 0.3% polyethyleneimine soaked filter mats using Filtermate harvester. Scintilation cocktail is then melted onto microwave-dried filters on a hot plate and the radio activity is counted in Microbia counter.

[13] = molecular target: T5, Muscarinic acetylcholine receptor M2 (Homo sapiens) (UniProt P08172)
T5 sequence (whole entry): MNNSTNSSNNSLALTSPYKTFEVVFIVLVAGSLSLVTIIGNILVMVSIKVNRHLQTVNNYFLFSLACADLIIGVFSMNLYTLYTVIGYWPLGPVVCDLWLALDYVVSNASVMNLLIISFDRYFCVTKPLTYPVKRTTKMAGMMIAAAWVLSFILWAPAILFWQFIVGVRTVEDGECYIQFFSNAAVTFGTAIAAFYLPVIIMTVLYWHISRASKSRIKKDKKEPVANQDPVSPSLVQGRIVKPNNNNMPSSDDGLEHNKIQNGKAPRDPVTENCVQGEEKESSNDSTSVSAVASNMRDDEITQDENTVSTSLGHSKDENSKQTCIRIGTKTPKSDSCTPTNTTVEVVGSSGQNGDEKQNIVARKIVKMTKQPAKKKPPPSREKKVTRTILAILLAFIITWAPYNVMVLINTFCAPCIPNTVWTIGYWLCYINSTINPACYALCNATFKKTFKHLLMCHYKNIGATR
Description: PDSP Primary Binding target: CHRM2 - Compounds are tested at 10 uM concentration, plate are incubated at room temperature in the dark for 90 minutes. Reaction are stopped by vacuum filtration onto 0.3% polyethyleneimine soaked filter mats using Filtermate harvester. Scintilation cocktail is then melted onto microwave-dried filters on a hot plate and the radio activity is counted in Microbia counter.

Muscarinic acetylcholine receptor M3 (Homo sapiens), sequence (P20309 whole entry, looked up): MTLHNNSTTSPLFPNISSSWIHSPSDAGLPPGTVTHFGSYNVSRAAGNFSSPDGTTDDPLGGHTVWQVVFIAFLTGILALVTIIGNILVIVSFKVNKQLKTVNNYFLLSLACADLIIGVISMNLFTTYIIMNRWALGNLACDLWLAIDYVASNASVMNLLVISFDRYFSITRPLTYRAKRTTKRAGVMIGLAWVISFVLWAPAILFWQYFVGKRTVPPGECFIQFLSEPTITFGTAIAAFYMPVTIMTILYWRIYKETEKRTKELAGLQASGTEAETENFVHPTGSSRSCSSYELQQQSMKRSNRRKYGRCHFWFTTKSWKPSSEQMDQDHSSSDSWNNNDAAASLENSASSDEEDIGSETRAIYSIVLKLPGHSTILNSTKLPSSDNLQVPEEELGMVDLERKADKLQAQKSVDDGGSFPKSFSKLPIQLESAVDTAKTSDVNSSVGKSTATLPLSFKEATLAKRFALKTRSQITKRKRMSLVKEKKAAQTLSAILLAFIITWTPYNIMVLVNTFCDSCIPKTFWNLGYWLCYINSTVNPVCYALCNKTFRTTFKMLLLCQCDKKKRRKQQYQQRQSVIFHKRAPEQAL
Sigma intracellular receptor 2 (Homo sapiens), sequence (Q5BJF2 whole entry): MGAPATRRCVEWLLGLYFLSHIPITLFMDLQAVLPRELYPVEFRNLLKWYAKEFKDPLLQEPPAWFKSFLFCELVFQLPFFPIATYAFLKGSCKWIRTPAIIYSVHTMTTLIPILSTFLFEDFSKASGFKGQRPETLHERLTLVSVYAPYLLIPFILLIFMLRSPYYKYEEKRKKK
D(3) dopamine receptor (Homo sapiens), sequence (P35462 whole entry): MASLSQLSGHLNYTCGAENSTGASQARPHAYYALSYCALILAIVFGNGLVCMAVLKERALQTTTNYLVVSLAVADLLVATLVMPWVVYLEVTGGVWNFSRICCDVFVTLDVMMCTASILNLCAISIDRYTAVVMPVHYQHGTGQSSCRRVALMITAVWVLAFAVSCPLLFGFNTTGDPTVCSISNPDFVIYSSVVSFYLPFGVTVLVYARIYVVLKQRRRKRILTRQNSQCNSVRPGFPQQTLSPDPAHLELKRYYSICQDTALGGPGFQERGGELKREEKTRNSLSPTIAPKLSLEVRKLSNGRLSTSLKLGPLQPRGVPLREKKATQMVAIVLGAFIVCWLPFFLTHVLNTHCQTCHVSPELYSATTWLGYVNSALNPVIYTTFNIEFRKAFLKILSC
D(2) dopamine receptor (Homo sapiens), sequence (P14416 whole entry): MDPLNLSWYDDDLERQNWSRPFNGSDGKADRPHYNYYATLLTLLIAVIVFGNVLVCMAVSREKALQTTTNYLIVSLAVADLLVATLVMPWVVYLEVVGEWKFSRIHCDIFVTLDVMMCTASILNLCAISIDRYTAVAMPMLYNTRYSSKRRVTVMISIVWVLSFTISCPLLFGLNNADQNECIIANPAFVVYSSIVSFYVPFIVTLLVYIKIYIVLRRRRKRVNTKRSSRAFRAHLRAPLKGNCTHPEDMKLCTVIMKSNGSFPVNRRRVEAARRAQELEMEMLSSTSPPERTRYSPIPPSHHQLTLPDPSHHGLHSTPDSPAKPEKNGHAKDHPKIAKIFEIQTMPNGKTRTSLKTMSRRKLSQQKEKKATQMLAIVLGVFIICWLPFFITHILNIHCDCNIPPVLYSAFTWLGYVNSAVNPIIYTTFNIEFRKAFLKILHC
D(1A) dopamine receptor (Homo sapiens), sequence (P21728 whole entry): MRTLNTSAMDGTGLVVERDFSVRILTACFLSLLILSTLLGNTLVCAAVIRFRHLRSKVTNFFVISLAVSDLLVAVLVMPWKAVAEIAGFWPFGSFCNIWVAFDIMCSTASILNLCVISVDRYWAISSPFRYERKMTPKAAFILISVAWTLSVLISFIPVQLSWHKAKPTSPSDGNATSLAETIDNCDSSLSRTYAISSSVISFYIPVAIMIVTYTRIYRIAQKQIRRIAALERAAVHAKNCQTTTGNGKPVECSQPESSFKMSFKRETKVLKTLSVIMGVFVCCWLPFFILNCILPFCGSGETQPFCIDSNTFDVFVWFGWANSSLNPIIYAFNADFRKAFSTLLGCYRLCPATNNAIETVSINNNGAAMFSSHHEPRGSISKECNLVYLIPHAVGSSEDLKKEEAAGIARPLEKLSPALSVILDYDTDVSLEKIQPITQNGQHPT
Histamine H2 receptor (Homo sapiens), sequence (P25021 whole entry): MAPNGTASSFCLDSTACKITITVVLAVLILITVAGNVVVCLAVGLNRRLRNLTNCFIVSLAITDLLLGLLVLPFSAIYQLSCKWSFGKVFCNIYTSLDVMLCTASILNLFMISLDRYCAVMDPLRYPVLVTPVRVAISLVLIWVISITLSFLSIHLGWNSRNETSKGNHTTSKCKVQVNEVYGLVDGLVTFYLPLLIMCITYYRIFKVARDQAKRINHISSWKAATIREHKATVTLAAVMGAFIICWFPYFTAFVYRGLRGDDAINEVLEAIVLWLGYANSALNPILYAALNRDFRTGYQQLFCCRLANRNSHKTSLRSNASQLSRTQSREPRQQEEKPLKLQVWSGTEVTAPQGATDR
5-hydroxytryptamine receptor 1E (Homo sapiens), sequence (P28566 whole entry): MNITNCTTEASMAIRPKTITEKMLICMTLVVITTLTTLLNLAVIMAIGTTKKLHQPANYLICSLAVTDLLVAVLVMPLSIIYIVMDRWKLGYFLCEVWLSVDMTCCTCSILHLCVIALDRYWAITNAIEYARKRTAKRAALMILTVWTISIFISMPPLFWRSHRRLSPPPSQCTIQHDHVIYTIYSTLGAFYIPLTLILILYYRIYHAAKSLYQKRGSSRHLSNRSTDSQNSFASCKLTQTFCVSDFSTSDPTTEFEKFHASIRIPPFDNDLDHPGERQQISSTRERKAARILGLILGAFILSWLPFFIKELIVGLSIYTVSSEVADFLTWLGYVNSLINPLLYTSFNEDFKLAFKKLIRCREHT
Histamine H3 receptor (Homo sapiens), sequence (Q9Y5N1 whole entry): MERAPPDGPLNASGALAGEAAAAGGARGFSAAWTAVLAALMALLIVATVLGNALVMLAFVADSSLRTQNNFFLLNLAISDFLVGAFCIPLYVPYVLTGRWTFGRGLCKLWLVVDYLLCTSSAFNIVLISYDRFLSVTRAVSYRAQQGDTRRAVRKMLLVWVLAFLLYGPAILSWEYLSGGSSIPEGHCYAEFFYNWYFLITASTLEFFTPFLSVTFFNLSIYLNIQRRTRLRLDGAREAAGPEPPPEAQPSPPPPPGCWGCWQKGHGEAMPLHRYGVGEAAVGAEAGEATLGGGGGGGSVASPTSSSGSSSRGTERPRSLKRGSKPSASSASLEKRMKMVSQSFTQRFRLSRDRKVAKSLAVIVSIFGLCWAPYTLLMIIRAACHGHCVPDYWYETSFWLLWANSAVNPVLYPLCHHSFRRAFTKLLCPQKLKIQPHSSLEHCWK

Molecule Cc1cc(C)cc(C(=O)N(C)[C@H](Cc2ccc(-c3ccccc3)cc2)C(=O)N[C@@H](Cc2c[nH]c3ccccc23)C(=O)O)c1 has an inhibition [1] of 22.3%, an inhibition [2] of 7.51% and an inhibition [3] of 12.5%. The inhibition [4] was 0.07%, the inhibition [5] was 3.03% and the inhibition [6] was 34.1%.

CN(C(=O)Cc1ccc(Cl)c(Cl)c1)C(CN1CCCC1)c1cccc(OCC(=O)O)c1 (stereo not given) gave an inhibition [1] of -0.83%, an inhibition [2] of 5.15% and an inhibition [4] of 9.38%. It also gave an inhibition [7] of -3.77%, an inhibition [5] of 3.88% and an inhibition [8] of -7.51%. It also gave an inhibition [9] of -3.71%, an inhibition [10] of 21.9% and an inhibition [6] of 28.1%.

CCCCN(CC)c1nc(C)nc2c1c(C)cn2-c1c(C)cc(C)cc1C gave an inhibition [1] of 18.2%, an inhibition [2] of 16.5% and an inhibition [11] of 19.2%. It also gave an inhibition [7] of 4.03%, an inhibition [5] of 18.6% and an inhibition [8] of -0.29%. It also gave an inhibition [9] of 18.4%, an inhibition [12] of -7.17% and an inhibition [10] of 78.3%. It also gave an inhibition [6] of 20.9%.

Work on COc1ccc(S(=O)(=O)c2cc(OC)ccc2S(=O)(=O)c2ccc([C@H](C)NS(C)(=O)=O)cc2)cc1 yielded an inhibition [1] of 22.6%, an inhibition [3] of -2.24% and an inhibition [11] of 0.39%. For the same molecule, the inhibition [7] was 1.18%, the inhibition [5] was 73.4% and the inhibition [9] was -6.16%. It also gave an inhibition [12] of 18.7%, an inhibition [10] of 32.1% and an inhibition [6] of 15.6%.

CCc1cc2c(c(CC)n1)CCC(=O)N2Cc1ccc(-c2ccccc2-c2nnn[nH]2)cc1 was tested, and the inhibition [1] was 18.5%, the inhibition [3] was 1.99% and the inhibition [11] was -4.14%. For the same molecule, the inhibition [7] was 37.9%, the inhibition [5] was 87.1% and the inhibition [9] was -6.23%. For the same molecule, the inhibition [10] was 8.89% and the inhibition [6] was 26.1%.

COc1ccccc1CN[C@H]1C2CCN(CC2)[C@H]1C(c1ccccc1)c1ccccc1 gave an inhibition [1] of -7.95%, an inhibition [2] of 11.1% and an inhibition [4] of 13.3%. It also gave an inhibition [7] of 9.32%, an inhibition [5] of 43% and an inhibition [8] of 11.3%. It also gave an inhibition [9] of 5%, an inhibition [12] of -3.39% and an inhibition [10] of 62.5%. The inhibition [6] was 8.86%.

Molecule C[C@H](CO)Nc1nc(SCc2cccc(Cl)c2F)nc2[nH]c(=O)sc12 has an inhibition [1] of -7.6%, an inhibition [3] of -2.82% and an inhibition [11] of -6.29%. For the same molecule, the inhibition [7] was -1.75%, the inhibition [5] was 13.7% and the inhibition [8] was 5.16%. For the same molecule, the inhibition [9] was -4.99%, the inhibition [12] was 15% and the inhibition [6] was 40%.

Work on Nc1nc2c(c(N3CCNCC3)n1)CCC1=C2[C@@H]2CCCC[C@@H]2O1 yielded an inhibition [1] of -7.78%, an inhibition [3] of 8.9% and an inhibition [4] of 15.3%. The inhibition [11] was -6.45%, the inhibition [7] was 25.9% and the inhibition [8] was 34.4%. For the same molecule, the inhibition [9] was 34.5%, the inhibition [12] was 7.29% and the inhibition [10] was 36.6%. For the same molecule, the inhibition [6] was 43.4%.

With CC(C)C[C@H](NC(=O)N1CCCCCC1)C(=O)N[C@H](Cc1cn(C)c2ccccc12)C(=O)N[C@H](Cc1ccccn1)C(=O)O the inhibition [1] was 14.1%, the inhibition [3] was 0.87% and the inhibition [7] was 2.53%. It also gave an inhibition [5] of 22.6%, an inhibition [10] of 9.3% and an inhibition [6] of 18%.

CCc1cc(C(C)=O)c(O)cc1OCCCCCC(C)(C)c1nn[nH]n1 gave an inhibition [1] of 8.06%, an inhibition [2] of 19.5% and an inhibition [4] of 8.78%. It also gave an inhibition [11] of 1.9%, an inhibition [7] of 8.34% and an inhibition [5] of 46.8%. The inhibition [8] was 0.93%, the inhibition [12] was 0.93% and the inhibition [6] was 6.38%.

O=S1(=O)c2cccc3cccc(c23)N1CCCN1CCN(c2ccc(F)cc2)CC1 showed an inhibition [1] of 97.8%, an inhibition [2] of 92% and an inhibition [3] of 12.9%. The inhibition [13] was 10.3%, the inhibition [4] was 1.23% and the inhibition [11] was 59.8%. It also gave an inhibition [7] of 41.2%, an inhibition [5] of 58.5% and an inhibition [8] of 45.5%. The inhibition [9] was -4.51%, the inhibition [12] was 97.4% and the inhibition [10] was 96.9%.

Cc1nc2sccn2c(=O)c1CCN1CCC(=C(c2ccc(F)cc2)c2ccc(F)cc2)CC1 gave an inhibition [1] of 96.8%, an inhibition [2] of 97.8% and an inhibition [3] of 18.5%. For the same molecule, the inhibition [13] was 34.1%, the inhibition [4] was 6.1% and the inhibition [11] was 99.5%. For the same molecule, the inhibition [7] was 95.4%, the inhibition [5] was 94.6% and the inhibition [8] was 30.7%. The inhibition [9] was 80.8%, the inhibition [12] was 97.8% and the inhibition [10] was 98.7%.

With CSc1ccc(C(=O)N[C@@H]2CCCC[C@@H]2NC(=O)CNC(=O)c2cc(C(F)(F)F)ccc2NC(=O)NC(C)C)cc1 the inhibition [1] was 7.53%, the inhibition [3] was 28.4% and the inhibition [11] was -8.17%. It also gave an inhibition [7] of 45.7%, an inhibition [5] of 86.6% and an inhibition [8] of 4.61%. The inhibition [9] was -4.02%, the inhibition [12] was 33.2% and the inhibition [10] was 18.9%. It also gave an inhibition [6] of 28.4%.

CCCCN(CCCC)C(=O)CN1C[C@@H](c2ccc3c(c2)OCO3)[C@H](C(=O)O)[C@H]1c1ccc(OC)cc1 gave an inhibition [1] of 11.4%, an inhibition [3] of -7.47% and an inhibition [11] of -3.74%. It also gave an inhibition [7] of 21.1%, an inhibition [5] of 28.4% and an inhibition [8] of -6.84%. It also gave an inhibition [9] of -0.09%, an inhibition [10] of -0.23% and an inhibition [6] of 31%.

Cc1nc(-c2ccc(-c3ccc(C(=O)N4CCc5cc6c(cc54)C4(CCN(C)CC4)CO6)cc3)c(C)c2)no1 was tested, and the inhibition [1] was 27.9%, the inhibition [2] was 66.3% and the inhibition [3] was 66.4%. For the same molecule, the inhibition [13] was 44.5%, the inhibition [4] was 73% and the inhibition [11] was 53.5%. It also gave an inhibition [7] of 29%, an inhibition [5] of 18.8% and an inhibition [8] of 35.6%. For the same molecule, the inhibition [9] was 0.78%, the inhibition [12] was 85.3% and the inhibition [10] was 95.4%.

C/C(=N\NC(=O)[C@@H]1C(=O)NC[C@H]1c1ccccc1)c1cccc(Br)c1 gave an inhibition [1] of 4.55%, an inhibition [2] of -1.53% and an inhibition [3] of -1.51%. The inhibition [11] was -9.99%, the inhibition [7] was 7.24% and the inhibition [8] was 7.14%. For the same molecule, the inhibition [12] was 33.4%, the inhibition [10] was 4.05% and the inhibition [6] was 20.4%.
